This assay in a line: Inhibition of Bcr-Abl in mouse BA/F3 cells.
For orientation: EC50 means the concentration at which the effect is half-maximal. A high value points to a less potent agent. `Cc1nc(C)c(Cn2ncc3c(Nc4ccc(OC(F)(F)F)cc4)ncnc32)s1` [1-((2,4-dimethylthiazol-5-yl)methyl)-N-(4-(trifluoromethoxy)phenyl)-1H-pyrazolo[3,4-d]pyrimidin-4-amine] returned an EC50 of 6920 nM. This lies in the single-digit micromolar range.

In turn, `FC(F)(F)Oc1ccc(Nc2ncnc3c2cnn3CC2CCOC2)cc1` (stereo unspecified) [1-((tetrahydrofuran-3-yl)methyl)-N-(4-(trifluoromethoxy)phenyl)-1H-pyrazolo[3,4-d]pyrimidin-4-amine] displayed an EC50 of 690 nM.

In turn, `FC(F)(F)Oc1ccc(Nc2ncnc3c2cnn3Cc2cccnc2)cc1` [1-(pyridin-3-ylmethyl)-N-(4-(trifluoromethoxy)phenyl)-1H-pyrazolo[3,4-d]pyrimidin-4-amine] returned an EC50 of 7150 nM.

For the compound `FC(F)(F)Oc1ccc(Nc2ncnc3c2cnn3Cc2ccccc2)cc1` [1-benzyl-N-(4-(trifluoromethoxy)phenyl)-1H-pyrazolo[3,4-d]pyrimidin-4-amine], the EC50 came out at 400 nM.

Take `FC(F)(F)Oc1ccc(Nc2ncnc3c2cnn3C2CCCCC2)cc1` [1-cyclohexyl-N-(4-(trifluoromethoxy)phenyl)-1H-pyrazolo[3,4-d]pyrimidin-4-amine]: a half-maximal response (EC50) required 400 nM.

The compound `CCn1ncc2c(Nc3ccc(OC(F)(F)F)cc3)ncnc21` [1-ethyl-N-(4-(trifluoromethoxy)phenyl)-1H-pyrazolo[3,4-d]pyrimidin-4-amine] showed an EC50 of 300 nM.

On to `CCCn1ncc2c(Nc3ccc(OC(F)(F)F)cc3)ncnc21` [1-propyl-N-(4-(trifluoromethoxy)phenyl)-1H-pyrazolo[3,4-d]pyrimidin-4-amine], for which the response was half-maximal at 270 nM (EC50).

The compound `CC(C)(C)n1ncc2c(Nc3ccc(OC(F)(F)F)cc3)ncnc21` [1-tert-butyl-N-(4-(trifluoromethoxy)phenyl)-1H-pyrazolo[3,4-d]pyrimidin-4-amine] displayed an EC50 of 160 nM.

`OCCn1ncc2c(Nc3ccc(OC(F)(F)F)cc3)ncnc21` [2-(4-(4-(Trifluoromethoxy)phenylamino)-1H-pyrazolo-[3,4-d]pyrimidin-1-yl)ethanol] yielded an EC50 of 250 nM. This EC50 lies about 1.6-fold higher than the previous one.

In the case of `OCCn1cc2c(Nc3ccc(OC(F)(F)F)cc3)ncnc2n1` [2-(4-(4-(Trifluoromethoxy)phenylamino)-2H-pyrazolo[3,4-d]pyrimidin-2-yl)ethanol], the EC50 is 1320 nM. Compared with the last compound, the EC50 is about 5.3-fold higher.

The compound `NC(=O)Cn1ncc2c(Nc3ccc(OC(F)(F)F)cc3)ncnc21` [2-(4-(4-(trifluoromethoxy)phenylamino)-1H-pyrazolo[3,4-d]pyrimidin-1-yl)acetamide] returned an EC50 of 350 nM.

`NC(=O)Cn1cc2c(Nc3ccc(OC(F)(F)F)cc3)ncnc2n1` [2-(4-(4-(trifluoromethoxy)phenylamino)-2H-pyrazolo[3,4-d]pyrimidin-2-yl)acetamide] yielded an EC50 of 4340 nM.

As for `NC(=O)c1ccccc1-c1cc(Nc2ccc(OC(F)(F)F)cc2)ncn1` [2-(6-(4-(trifluoromethoxy)phenylamino)pyrimidin-4-yl)benzamide], the EC50 is more than 10000 nM.

As to `FC(F)(F)Oc1ccc(Nc2ncnc3nn(Cc4cccnc4)cc23)cc1` [2-(pyridin-3-ylmethyl)-N-(4-(trifluoromethoxy)phenyl)-2H-pyrazolo[3,4-d]pyrimidin-4-amine], the EC50 was found to be 1700 nM.

`FC(F)(F)Oc1ccc(Nc2ncnc3nn(Cc4ccccc4)cc23)cc1` [2-benzyl-N-(4-(trifluoromethoxy)phenyl)-2H-pyrazolo[3,4-d]pyrimidin-4-amine] had an EC50 of more than 10000 nM.

Turning to `FC(F)(F)Oc1ccc(Nc2ncnc3nn(C4CCCCC4)cc23)cc1` [2-cyclohexyl-N-(4-(trifluoromethoxy)phenyl)-2H-pyrazolo[3,4-d]pyrimidin-4-amine], a half-maximal response (EC50) required 2200 nM.

As to `CCn1cc2c(Nc3ccc(OC(F)(F)F)cc3)ncnc2n1` [2-ethyl-N-(4-(trifluoromethoxy)phenyl)-2H-pyrazolo[3,4-d]pyrimidin-4-amine], the midpoint of the response, the EC50, lay at 1200 nM.

In turn, `CCCn1cc2c(Nc3ccc(OC(F)(F)F)cc3)ncnc2n1` [2-propyl-N-(4-(trifluoromethoxy)phenyl)-2H-pyrazolo[3,4-d]pyrimidin-4-amine] came in with an EC50 of 160 nM.

As for `NC(=O)CCn1ccc2c(Nc3ccc(OC(F)(F)F)cc3)ncnc21` [3-(4-(4-(trifluoromethoxy)phenylamino)-7H-pyrrolo[2,3-d]pyrimidin-7-yl)propanamide], the EC50 stood at 490 nM. Against the preceding compound, the EC50 is about 3.1-fold higher.

`NS(=O)(=O)c1cccc(-c2cc(Nc3ccc(OC(F)(F)F)cc3)ncn2)c1` [3-(6-(4-(trifluoromethoxy)phenylamino)pyrimidin-4-yl)benzenesulfonamide] gave an EC50 of 580 nM.

The compound `NC(=O)c1cccc(Nc2cc(Nc3ccc(OC(F)(F)F)cc3)ncn2)c1` [3-(6-(4-(trifluoromethoxy)phenylamino)pyrimidin-4-ylamino)benzamide] yielded an EC50 of 2920 nM.

With `NC(=O)c1cccc(Oc2cc(Nc3ccc(OC(F)(F)F)cc3)ncn2)c1` [3-(6-(4-(trifluoromethoxy)phenylamino)pyrimidin-4-yloxy)benzamide], a half-maximal effect (EC50) was put at 5000 nM. This EC50 is about 1.7-fold higher than that of the compound before.

On to `O=C(O)c1cc2c(Nc3ccc(OC(F)(F)F)cc3)ncnc2s1` [4-(4-(trifluoromethoxy)phenylamino)thieno[2,3-d]pyrimidine-6-carboxylic acid], for which the EC50 was more than 10000 nM.

As for `NC(=O)c1ccc(-c2cc(Nc3ccc(OC(F)(F)F)cc3)ncn2)cc1` [4-(6-(4-(trifluoromethoxy)phenylamino)pyrimidin-4-yl)benzamide], it took 480 nM to reach a half-maximal effect (EC50).

The compound `NS(=O)(=O)c1ccc(-c2cc(Nc3ccc(OC(F)(F)F)cc3)ncn2)cc1` [4-(6-(4-(trifluoromethoxy)phenylamino)pyrimidin-4-yl)benzenesulfonamide] showed an EC50 of 120 nM.

Compound `NC(=O)c1ccc(Cn2ncc3c(Nc4ccc(OC(F)(F)F)cc4)ncnc32)cc1` [4-((4-(4-(trifluoromethoxy)phenylamino)-1H-pyrazolo[3,4-d]pyrimidin-1-yl)methyl)benzamide] showed an EC50 of 6890 nM.

For `Cc1c(NCCN2CCOCC2)ncnc1Nc1ccc(OC(F)(F)F)cc1` [5-methyl-N4-(2-morpholinoethyl)-N6-(4-(trifluoromethoxy)phenyl)pyrimidine-4,6-diamine], the EC50 worked out at 970 nM.

`CC(C)Cn1cc(-c2cc(Nc3ccc(OC(F)(F)F)cc3)ncn2)cn1` [6-(1-isobutyl-1H-pyrazol-4-yl)-N-(4-(trifluoromethoxy)phenyl)pyrimidin-4-amine] came in with an EC50 of 360 nM.

In turn, `FC(F)(F)Oc1ccc(Nc2cc(-n3ccnc3)ncn2)cc1` [6-(1H-imidazol-1-yl)-N-(4-(trifluoromethoxy)phenyl)pyrimidin-4-amine] yielded an EC50 of 1660 nM. This EC50 is about 4.6-fold higher than that of the compound before.

The compound `FC(F)(F)Oc1ccc(Nc2cc(-c3cccc4[nH]ccc34)ncn2)cc1` [6-(1H-indol-4-yl)-N-(4-(trifluoromethoxy)phenyl)pyrimidin-4-amine] gave an EC50 of 140 nM. Compared with the last compound, the EC50 is about 12-fold lower.

`FC(F)(F)Oc1ccc(Nc2cc(-c3ccc4[nH]ccc4c3)ncn2)cc1` [6-(1H-indol-5-yl)-N-(4-(trifluoromethoxy)phenyl)pyrimidin-4-amine]: a half-maximal response (EC50) required 290 nM.

Take `FC(F)(F)Oc1ccc(Nc2cc(-c3cn[nH]c3)ncn2)cc1` [6-(1H-pyrazol-4-yl)-N-(4-(trifluoromethoxy)phenyl)pyrimidin-4-amine]: the EC50 turned out to be 90 nM.

`FC(F)(F)Oc1ccc(Nc2cc(-c3ccnc4[nH]ccc34)ncn2)cc1` [6-(1H-pyrrolo[2,3-b]pyridin-4-yl)-N-(4-(trifluoromethoxy)phenyl)pyrimidin-4-amine] yielded a concentration for a half-maximal effect (EC50) of 170 nM. This EC50 is about 1.9-fold higher than that of the compound before.

Turning to `Cc1nc(-c2cc(Nc3ccc(OC(F)(F)F)cc3)ncn2)cs1` [6-(2-methylthiazol-4-yl)-N-(4-(trifluoromethoxy)phenyl)pyrimidin-4-amine], a half-maximal effect (EC50) was put at 1230 nM.

The compound `CS(=O)(=O)c1cccc(-c2cc(Nc3ccc(OC(F)(F)F)cc3)ncn2)c1` [6-(3-(methylsulfonyl)phenyl)-N-(4-(trifluoromethoxy)phenyl)pyrimidin-4-amine] displayed an EC50 of 390 nM.

`Nc1cccc(-c2cc(Nc3ccc(OC(F)(F)F)cc3)ncn2)c1` [6-(3-aminophenyl)-N-(4-(trifluoromethoxy)phenyl)pyrimidin-4-amine] came in with an EC50 of 330 nM.

`Cc1c(-c2cc(Nc3ccc(OC(F)(F)F)cc3)ncn2)cnn1-c1ccccc1` [6-(5-methyl-1-phenyl-1H-pyrazol-4-yl)-N-(4-(trifluoromethoxy)phenyl)pyrimidin-4-amine] registered an EC50 of 810 nM.

`FC(F)(F)Oc1ccc(Nc2cc(-c3ccncc3)ncn2)cc1` [6-(pyridin-4-yl)-N-(4-(trifluoromethoxy)phenyl)pyrimidin-4-amine] displayed a 50% effective concentration (EC50) of 470 nM.

`FC(F)(F)c1ccc(Nc2cc(-c3ccncc3)ncn2)cc1` [6-(pyridin-4-yl)-N-(4-(trifluoromethyl)phenyl)pyrimidin-4-amine] showed an EC50 of 1270 nM.

For the compound `FC(F)(F)c1ccc(Nc2cc(-c3ccncc3)ncn2)cn1` [6-(pyridin-4-yl)-N-(6-(trifluoromethyl)pyridin-3-yl)pyrimidin-4-amine], it took 1240 nM to reach a half-maximal effect (EC50).

For the compound `FC(F)(F)Oc1ccc(Nc2cc(N3CCOCC3)ncn2)cc1` [6-morpholino-N-(4-(trifluoromethoxy)phenyl)pyrimidin-4-amine], the EC50 was determined as 1800 nM.

As to `FC(F)(F)Oc1ccc(Nc2ncnc3c2ccn3CCN2CCOCC2)cc1` [7-(2-morpholinoethyl)-N-(4-(trifluoromethoxy)phenyl)-7H-pyrrolo[2,3-d]pyrimidin-4-amine], it took 380 nM to reach a half-maximal effect (EC50). This EC50 lies about 4.7-fold lower than the previous one.

The compound `Cn1ccc2c(Nc3ccc(OC(F)(F)F)cc3)ncnc21` [7-methyl-N-(4-(trifluoromethoxy)phenyl)-7H-pyrrolo[2,3-d]pyrimidin-4-amine] gave an EC50 of 6890 nM.

On to `O=C(c1cc2c(Nc3ccc(OC(F)(F)F)cc3)ncnc2s1)N1CCC(O)CC1` [(4-hydroxypiperidin-1-yl)(4-(4-(trifluoromethoxy)phenylamino)thieno[2,3-d]pyrimidin-6-yl)methanone], for which it took 1960 nM to reach a half-maximal effect (EC50).

`CN1CCN(C(=O)c2cc3c(Nc4ccc(OC(F)(F)F)cc4)ncnc3s2)CC1` [(4-methylpiperazin-1-yl)(4-(4-(trifluoromethoxy)phenylamino)thieno[2,3-d]pyrimidin-6-yl)methanone] showed an EC50 of 48 nM.

`FC(F)(F)Oc1ccc(Nc2ncnc(NCCN3CCOCC3)n2)cc1` [N2-(2-morpholinoethyl)-N4-(4-(trifluoromethoxy)phenyl)-1,3,5-triazine-2,4-diamine] came in with an EC50 of more than 10000 nM.
